Experimental data published in patent US11401278B2, “Macrocyclic indole derivatives” (The Broad Institute, Inc., priority 2017, dated 2022).
Counter-ions that a name gives are not always drawn. Like-named read-outs stand apart in the source and are kept apart here.

Columns and labels:
[1] = test system: SUDHL10; test: Antiproliferation assay (Assay 7), SUDHL10; type: cell-based; conditions: CellTiter-Glo, median, read-out: Antiproli SUDHL10 [M] (median) IC50
Method: (§1) Assessment of the Anti-Proliferative Effect of Compounds in Different Cell Lines
(§2) The impact of compounds on the proliferation of different cell lines was assessed using the CellTiter-Glo® Luminescent Cell Viability reagent from Promega (G7573).
(§3) In parallel, cells were plated in a reference (day 0) plate for time zero determination.
(§4) Rim wells were excluded. The cells were incubated for 72 hours in a humidified incubator at 37° C. The day 0 plate was measured by adding 30 μL/well of CTG solution (CellTiter-Glo® Luminescent Cell Viability reagent, Promega G7573) to time zero wells in the reference plate followed by a 10 minutes incubation and luminescence reading at 0.1 ms. using the PHERAstar FS microplate reader (BMG Labtech).
(§5) After 72 hours incubation, the treated plates were measured in the same way as the day 0 plate mentioned above.

[2] = from CCOC(=O)c1[nH]c2c(-c3c(CN(CCCN4CCOCC4)S(=O)(=O)CCCCl)nn(C)c3CC)cccc2c1CCCOc1cccc2ccccc12; amine bond; NaH; DMF; 25.0 mM; 60.0 °C; 6.0 h; 2 steps
[3] = test system: A-431; test: Antiproliferation assay (Assay 7), A-431; type: cell-based; conditions: Homo sapiens, CellTiter-Glo, 72 hours, median, read-out: Antiproli A-431 [M] median IC50
Method: as §1, §2, §3, §4, §5

[4] = test system: SK-MEL-2; test: Antiproliferation assay (Assay 7), SK-MEL-2; type: cell-based; conditions: Homo sapiens, CellTiter-Glo, 72 hours, median, read-out: Antiproli SK-MEL-2 [M] median IC50
Method: as §1, §2, §3, §4, §5

[5] = test system: DM-S114; test: Antiproliferation assay (Assay 7), DM-S114; type: cell-based; conditions: Homo sapiens, DMS-114, CellTiter-Glo, 72 hours, median, read-out: Antiproli DM-S114 [M] median IC50
Method: as §1, §2, §3, §4, §5

[6] = test system: PA-1; test: Antiproliferation assay (Assay 7), PA-1; type: cell-based; conditions: Homo sapiens, CellTiter-Glo, 72 hours, median, read-out: Antiproli PA-1 [M] median IC50
Method: as §1, §2, §3, §4, §5

[7] = test system: SNU-16; test: Antiproliferation assay (Assay 7), SNU-16; type: cell-based; conditions: Homo sapiens, CellTiter-Glo, 72 hours, median, read-out: Antiproli SNU-16 [M] median IC50
Method: as §1, §2, §3, §4, §5

[8] = test system: SUDHL5
Method: (§6) Assay 6 Induction of Cytotoxicity Upon Treatment of Cells with Selected Compounds
(§7) Therefore, cytotoxicity assays were run in parallel in SUDHL5 and SUDHL10 cells.
(§8) The different cell lines were plated in culture medium (RPMI 1640 [GIBCO #22400-089] supplemented with 10% Fetal Bovine Serum) at a density of 3,300 cells in 30 μl/well in a sterile, solid black, flat bottom, polystyrene, TC-treated 384-well microplate (Corning #3571) using Multidrop Combi Reagent Dispenser. As a control, medium without cells was also added to the plate. Cells were incubated in a humidified incubator at 37° C. overnight. On the next day, the cells were treated with compounds (stock solution, 10 mM in DMSO) using the HP D300 Digital Dispenser in a concentration range of 3.3×10e-5 M (33 μM) to 5×10e-9 M (5 nM) in a single-dot curve with at least 16 dilutions and a DMSO concentration of 0.33%. Rim wells were excluded. The cells were incubated for 5 hours in a humidified incubator at 37° C. After this incubation, 30 μl of CellTiter-Glo® Luminescent Cell Viability reagent (Promega, G7573) was added to each well using the Multidrop Combi Reagent Dispenser, followed by 15 minutes incubation on a shaker at room temperature. Finally, luminescence was read at 0.1 ms, with a gain of 3000 using the PHERAstar FS microplate reader (BMG Labtech).

[9] = test system: SUDHL10
Method: as §6, §7, §8

IC50 [3]	IC50 [4]	IC50 [7]	Compound	IC50 [6]	also measured
–	–	–	Cc1c2c(nn1C)CN(C)S(=O)(=O)CCCn1c(C(=O)O)c(CCCOc3cccc4ccccc34)c3ccc(Cl)c-2c31 (racemic) [Example 4, (rac)-4-Chloro-2,3,14-trimethyl-7-{3-[(naphthalen-1-yl)oxy]propyl}-13,13-dioxo-10,11,12,13,14,15-hexahydro-2H-13λ^6-pyrazolo[3′,4′:4,5][1,2,8]thiadiazacycloundecino-[6,7,8-hi]indole-8-carboxylic acid]	–	IC50 ([1]; Homo sapiens, SU-DHL10, 72 h): 5.6e-07 M
–	–	–	CCc1c2c(nn1C)CN(CCCN1CCOCC1)S(=O)(=O)CCCn1c(C(=O)O)c(CCCOc3cccc4ccccc34)c3cccc-2c31 (racemic) [Example 15, (rac)-12-Ethyl-11-methyl-8-(3-morpholinopropyl)-1-(3-(naphthalen-1-yloxy)propyl)-4,5,6,8,9,11-hexahydropyrazolo[3′,4′:4,5][1,2,8]thiadiazacycloundecino[6,7,8-hi]indole-2-carboxylic acid 7,7-dioxide 2,2,2-trifluoroacetic acid salt]	–	ring closure, yield of all isomers [2]: 48.2%
1.18e-06 M	1.14e-06 M	1.05e-06 M	CCc1c2c(nn1C)CN(CC)S(=O)(=O)CCCn1c(C(=O)O)c(CCCOc3cccc4cc(F)ccc34)c3ccc(Cl)c-2c31 (racemic) [Example 56, (rac)-4-chloro-3,14-diethyl-7-{3-[(6-fluoro-1-naphthyl)oxy]propyl}-2-methyl-11,12,14,15-tetrahydro-2H,10H-pyrazolo[3′,4′:4,5][1,2,8]thiadiazacycloundecino[6,7,8-hi]indole-8-carboxylic acid 13,13-dioxide]	7.07e-07 M	IC50 [5]: 5.61e-07 M
2.07e-06 M	5.08e-06 M	2.54e-06 M	CCc1c2c(nn1C)C(CCC1CCOCC1)N(C)S(=O)(=O)CCCn1c(C(=O)O)c(CCCOc3cccc4cc(F)ccc34)c3ccc(Cl)c-2c31 (racemic) [Example 60, (rac)-4-chloro-3-ethyl-7-{3-[(6-fluoro-1-naphthyl)oxy]propyl}-2,14-dimethyl-15-[2-(tetrahydro-2H-pyran-4-yl)ethyl]-11,12,14,15-tetrahydro-2H,10H-pyrazolo[3′,4′:4,5][1,2,8]thiadiazacycloundecino[6,7,8-hi]indole-8-carboxylic acid 13,13-dioxide (Racemate 1)]	1.84e-06 M	–
–	–	–	CCc1c2c(nn1C)C(CCN1CCOCC1)N(C)S(=O)(=O)CCCn1c(C(=O)O)c(CCCOc3cccc4cc(F)ccc34)c3ccc(Cl)c-2c31 (racemic) [Example 73, (rac)-(4-chloro-3-ethyl-7-{3-[(6-fluoronaphthalen-1-yl)oxy]propyl}-2,14-dimethyl-15-[2-(morpholin-4-yl)ethyl]-13,13-dioxo-10,11,12,13,14,15-hexahydro-2H-13lambda^6-pyrazolo[3′,4′:4,5][1,2,8]thiadiazacycloundecino[6,7,8-hi]indole-8-carboxylic acid (Racemate 1)]	–	IC50 [8]: 0.02 µM; IC50 [9]: 0.019 µM
–	–	–	Cc1c2c(nn1C)CN(C)S(=O)(=O)CCCn1c(C(=O)O)c(CCCOc3cccc4ccccc34)c3ccc(Cl)c-2c31 (single isomer, unassigned; enantiomer 1) [Example 5, 4-Chloro-2,3,14-trimethyl-7-{3-[(naphthalen-1-yl)oxy]propyl}-13,13-dioxo-10,11,12,13,14,15-hexahydro-2H-13λ^6-pyrazolo[3′,4′:4,5][1,2,8]thiadiazacycloundecino[6,7,8-hi]indole-8-carboxylic acid-N-ethylethanamine salt (Enantiomer 1)]	–	IC50 ([1]; 72 hours): 4.4e-07 M
